Assay results reported in US20240343733A1, “COMPOUNDS FOR TARGETING DEGRADATION OF IRAK4 PROTEINS” (BIOGEN MA INC., priority 2021, published 2024).

Target: T1, IRAK4 (Canis lupus familiaris, UniProt A0A8I3S726)
T1 sequence (A0A8I3S726 1-460): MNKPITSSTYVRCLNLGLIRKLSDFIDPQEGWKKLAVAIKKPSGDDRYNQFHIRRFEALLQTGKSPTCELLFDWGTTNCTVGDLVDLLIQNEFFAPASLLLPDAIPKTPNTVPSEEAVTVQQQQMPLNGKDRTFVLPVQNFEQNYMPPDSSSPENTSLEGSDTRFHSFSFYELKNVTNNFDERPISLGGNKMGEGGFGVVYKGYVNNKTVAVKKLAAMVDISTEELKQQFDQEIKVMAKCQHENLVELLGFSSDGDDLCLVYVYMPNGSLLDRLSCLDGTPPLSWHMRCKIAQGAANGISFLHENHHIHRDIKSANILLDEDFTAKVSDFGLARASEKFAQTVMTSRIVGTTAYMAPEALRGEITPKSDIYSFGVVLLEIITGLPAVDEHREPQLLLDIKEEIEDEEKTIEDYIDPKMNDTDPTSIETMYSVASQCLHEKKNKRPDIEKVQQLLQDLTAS
Assay: Pharmacodynamics (PD) in Male Beagle Dogs, IRAK4 quantitation in PBMCs by nanoLC-MS/MS
Format: in vivo
Conditions: male beagle dog PBMCs
Experimental: Assay 4. Pharmacodynamics (PD) in Male Beagle Dogs
Pharmacodynamics (PD) biomarker analyses of male beagle dog PMBCs from the whole blood timepoint samples collected in Assay 3 were performed.
For isolation of PBMCs, the whole blood timepoint samples described in Assay 3 above were processed immediately to ensure high viability of PBMCs. All the samples were processed at 18° C. to 20° C. The freshly collected whole blood (2 mL) was mixed with an equal volume of phosphate buffered saline. This mixture was inverted several times to ensure thorough mixing. The Histopaque® (Catalog no. 10771, Sigma-Aldrich, St. Louis, MO) bottle was inverted several times to ensure uniformity of the medium. A sterile syringe was used to draw 2 mL of Histopaque® medium and added to a sterile centrifuge tube. The whole blood-PBS sample (4 ml) was carefully layered on top of the Histopaque® medium, without mixing. The tube was centrifuge at 600 g for 30 to 40 min at 18° C. to 20° C. with the brakes turned off. The upper layer containing plasma and platelets was withdrawn slowly using a sterile pipette, leaving the PBMC cell layer undisturbed at the interface. The PBMC layer was transferred to a sterile centrifuge tube using a sterile pipette. The PBMCs were washed with 3 volumes (˜6 mL) of Hank's balanced salt solution (HBSS) (Gibco, Grand Island, NY) in the centrifuge tube. The cells were suspended by gently drawing them in and out of a pipette. The tubes were centrifuged at 250 g for 10 to 15 minutes at 18° C. to 20° C. and the supernatant discarded. The PBMCs were then resuspended in 6 to 8 ml of HBSS. For cell counting, the cell suspension was diluted 1:1 with Trypan Blue dye and mixed well. The cell numbers (live and dead) were counted, and cell viability calculated. The cell numbers and cell viability of each PBMC sample were recorded. The tube was centrifuged again at 500 g for 10 min at 18° C. to 20° C. The supernatant was removed, and the cell pellet was frozen at −80° C.
The frozen dog PBMC cell pellets were homogenized in two pellet volumes of lysis buffer (100 mM triethylammonium bicarbonate (TEAB), 4% SDS, 1× Roche protease inhibitor cocktail) by sonicating at 150 watt for 10 seconds in a 4° C. water bath using an E220 focused-ultrasonicator (Covaris, Woburn, MA, USA). Lysates were then clarified by centrifugation at 18,000 g for 20 minutes at 4° C. and protein concentrations were determined by bicinchoninic acid (BCA) assay (ThermoFisher Scientific, Waltham, MA, USA).
For protein digestion, an equal amount of protein was taken from each sample. Proteins were reduced with 10 mM DTT for 10 minutes at 70° C. and alkylated with 25 mM iodoacetamide for 30 minutes in the dark. Tryptic digestion was performed with S-Trap™ method (Protifi, Farmingdale, NY, USA) overnight at 37° C. In brief, samples were mixed with 90% MeOH in 100 mM TEAB containing 10% (w/w) trypsin and loaded onto an in-house packed S-Trap microcolumns. Samples were washed with 90% MeOH in 100 mM TEAB, and digested in 100 mM TEAB for 16 hours at 37° C. The resulting peptides were spiked with five heavy-labeled IRAK4 peptides (Vivitide, LLC, Gardner, MA, USA) at 2 fmol each (column loading), desalted using C18 StageTip, SpeedVac dried, and kept at −80 C until nanoLC-MS/MS analysis.
Peptide analysis was performed on a nanoLC-MS/MS platform composed of a Q Exactive HF mass spectrometer coupled to an EASY-nLC 1200 (ThermoFisher Scientific). Peptides were separated on an EASY-Spray™ C18 column (50 cm×75 am, 2 am) (ThermoFisher Scientific) at 50° C. Mobile phases were 0.1% formic acid in water (A) and 80% acetonitrile, 0.1% formic acid (B). Peptides were eluted with a 100-min method over an effective 80 min gradient from […] to 45% B at a flow rate of 275 nL/min. Peptides were ionized with a spray voltage of 1,800 V. Mass spectrometric data were acquired at parallel reaction monitoring (PRM) mode including five pairs of light and heavy IRAK4 peptides (Table 7 below). […]

SMILES | IRAK4 change from vehicle (time 0 h) | IRAK4 change from vehicle (time 2 h) [%] | IRAK4 change from vehicle (time 24 h) [%] | IRAK4 change from vehicle (time 48 h) [%] | IRAK4 change from vehicle (time 96 h) [%]
CC(C)Oc1cc2nc([C@H]3CC[C@H](CN4CCC(c5ccc6c(c5)n(C)c(=O)n6C5CCC(=O)NC5=O)CC4)CC3)cn2cc1C(=O)Nc1cnn2cccnc12 (stereo partly shown) [Compound 48, 2-[4-[[4-[1-(2,6-dioxo-3-piperidyl)-3-methyl-2-oxo-benzimidazol-5-yl]-1-piperidyl]methyl]cyclohexyl]-7-isopropoxy-N-pyrazolo[1,5-a]pyrimidin-3-yl-imidazo[1,2-a]pyridine-6-carboxamide] | +12% | −51 | −97 | −95 | −95
CC(C)Oc1cc2nc([C@H]3CC[C@H](CN4CCC(c5ccc6c(c5)n(C)c(=O)n6C5CCC(=O)NC5=O)CC4)CC3)cn2cc1C(=O)Nc1cccn([C@H]2C[C@H]2F)c1=O (stereo partly drawn) [Compound 169, 2-((1R,4S)-4-((4-(1-(2,6-dioxopiperidin-3-yl)-3-methyl-2-oxo-2,3-dihydro-1H-benzo[d]imidazol-5-yl)piperidin-1-yl)methyl)cyclohexyl)-N-(1-((1S,2R)-2-fluorocyclopropyl)-2-oxo-1,2-dihydropyridin-3-yl)-7-isopropoxyimidazo[1,2-a]pyridine-6-carboxamide] | −11% | −57 | −97 | −96 | −95
